Data on five compounds can be found in PMC11053168, “Agonist-selective activation of individual G-proteins by muscarinic receptors” (Scientific Reports, 2024).

Molecules are shown by their SMILES. Read-outs that look alike come from different tables or passages of the source.

One assay deals with T1, M4 muscarinic receptor (Homo sapiens, UniProt P08173).
T1 construct: membranes
T1 sequence (P08173 1-479): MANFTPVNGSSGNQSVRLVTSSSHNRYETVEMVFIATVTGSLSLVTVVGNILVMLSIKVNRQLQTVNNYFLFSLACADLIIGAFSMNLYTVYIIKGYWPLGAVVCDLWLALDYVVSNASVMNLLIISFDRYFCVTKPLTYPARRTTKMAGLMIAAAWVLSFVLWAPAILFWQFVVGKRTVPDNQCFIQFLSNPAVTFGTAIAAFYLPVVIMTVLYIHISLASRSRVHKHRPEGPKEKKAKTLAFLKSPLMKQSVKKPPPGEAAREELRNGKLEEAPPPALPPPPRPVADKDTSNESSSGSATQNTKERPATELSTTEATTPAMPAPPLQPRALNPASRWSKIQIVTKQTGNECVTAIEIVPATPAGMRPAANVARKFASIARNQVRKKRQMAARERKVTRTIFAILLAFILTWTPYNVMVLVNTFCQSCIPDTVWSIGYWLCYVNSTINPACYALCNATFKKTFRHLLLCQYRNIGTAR
Kind of assay: [3H]NMS competition binding, membranes from CHO cells expressing M4. The method, then: Cells were cultured as described previously by Randakova et al.[33]. […] The medium was supplemented with 5 mM butyrate for the last 24 h of culture to increase receptor expression. Cells were washed with (phosphate-buffered saline (PBS), mechanically harvested by scraper and centrifugated 1000 × g for 5 min. Cell pellets were kept at − 80 °C.
Membranes were prepared as described previously by Randakova et al.[33]. Cells harvested from twenty 100 mm petri dishes (CHO) or 30 ml of cell suspension (Sf9) were suspended in 20 ml of ice-cold incubation medium (100 mM NaCl, 20 mM Na-HEPES, 10 mM MgCl2, pH 7.4) supplemented with 10 mM EDTA and homogenized on ice by two 30‐s strokes using a Polytron homogenizer (Ultra-Turrax; Janke & Kunkel GmbH & Co. KG, IKA-Labortechnik, Staufen, Germany) with a 30 s pause between strokes. Cell homogenates were centrifuged for 5 min at 1000×g to remove whole cells and cell nuclei. The resulting supernatants were centrifuged for 30 min at 30,000×g. Pellets were suspended in a fresh incubation medium, incubated on ice for 30 min, and centrifuged again. The resulting membrane pellets were kept at − 80 °C until assayed within 10 weeks.
Non-specific binding was determined in the presence of 10 μM unlabelled atropine. Incubations were terminated by filtration through filtration plates multiscreen 96 well Harvest (Merck Millipore) using a Brandel cell harvester (Brandel, Gaithersburg, MD, USA). Filtration plates were dried in a microwave oven, and then 40 μl of liquid scintillator Rotiscint eco plus (Roth) was added. The filtration plates were counted in the Microbeta scintillation counter (PerkinElmer). […] The inhibition constant KI was calculated according to Eq. (2).
Inhibition constants KI were calculated according to Eq. (2).2 KI=IC50/1+D/KD where IC50 is calculated according to Eq.

The target in assay [1] is individual subtypes of muscarinic receptors (M1–M5). More on the design: method as in PMID 31910288. The following applies: summary of Table 1 over subtypes; read-out: Affinity; cited from earlier work.
The target of the next assay is T2, M1 receptor (Homo sapiens, UniProt P11229).
T2 sequence (P11229 1-460): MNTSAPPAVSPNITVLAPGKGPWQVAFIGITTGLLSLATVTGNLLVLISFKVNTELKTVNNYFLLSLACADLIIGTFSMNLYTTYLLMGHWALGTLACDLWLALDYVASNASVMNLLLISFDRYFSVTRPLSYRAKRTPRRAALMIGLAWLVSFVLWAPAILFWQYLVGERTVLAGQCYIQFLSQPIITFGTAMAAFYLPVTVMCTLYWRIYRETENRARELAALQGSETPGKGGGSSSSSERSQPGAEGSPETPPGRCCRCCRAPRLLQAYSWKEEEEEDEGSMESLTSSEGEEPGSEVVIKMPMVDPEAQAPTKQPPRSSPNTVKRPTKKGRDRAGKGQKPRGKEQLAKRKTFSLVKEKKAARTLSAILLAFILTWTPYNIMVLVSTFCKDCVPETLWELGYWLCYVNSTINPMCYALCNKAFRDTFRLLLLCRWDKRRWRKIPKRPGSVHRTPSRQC
More on the design: expressed in transfected cells; method as in PMID 31910288. The following applies: CHO expressing M1; cited from earlier work.

For the next assay, the target named is M3 receptor (Homo sapiens, UniProt P20309). Set-up: expressed in transfected cells; method as in PMID 31910288. The conditions noted are these: CHO expressing M3; cited from earlier work.
M3 receptor, sequence (P20309 whole entry): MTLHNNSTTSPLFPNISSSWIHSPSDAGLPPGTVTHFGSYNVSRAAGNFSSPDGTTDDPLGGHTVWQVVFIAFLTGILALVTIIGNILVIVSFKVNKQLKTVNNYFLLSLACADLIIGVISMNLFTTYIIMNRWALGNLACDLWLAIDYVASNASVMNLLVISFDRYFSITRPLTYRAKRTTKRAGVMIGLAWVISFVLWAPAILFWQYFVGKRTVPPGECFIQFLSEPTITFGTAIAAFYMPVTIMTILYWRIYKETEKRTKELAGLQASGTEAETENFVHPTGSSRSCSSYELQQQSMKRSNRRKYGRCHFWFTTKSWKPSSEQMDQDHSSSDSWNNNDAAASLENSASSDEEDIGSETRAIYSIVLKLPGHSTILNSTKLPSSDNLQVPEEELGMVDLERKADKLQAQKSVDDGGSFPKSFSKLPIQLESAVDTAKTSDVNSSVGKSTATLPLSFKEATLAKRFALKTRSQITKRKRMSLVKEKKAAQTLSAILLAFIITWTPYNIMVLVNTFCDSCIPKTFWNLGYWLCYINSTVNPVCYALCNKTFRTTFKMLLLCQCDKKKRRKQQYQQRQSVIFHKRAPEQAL
In assay [2] the test system is individual subtypes of muscarinic receptors (M1–M5). Kind of assay: [3H]NMS competition binding, summary over subtypes. Set-up: species or system human. The following applies: summary of Table 1 over subtypes. The method, then: CHO cells stably transfected with the genes of individual subtypes of human muscarinic receptors (M1–M5, wild types) were purchased from Missouri S&T cDNA resource center (Rolla, MO, USA) (https://www.cdna.org/home.php?cat=177). Cells were cultured as described previously by Randakova et al.[33]. Cells were grown to confluence in 75 cm^2 flasks in Dulbecco’s modified Eagle’s medium DMEM (Thermo Fisher Scientific; LOT: 2556745) supplemented with 10% fetal bovine serum and geneticin in concentration 50 µg/ml at 37 °C in a humidified incubator containing 5% CO2. The medium was supplemented with 5 mM butyrate for the last 24 h of culture to increase receptor expression. Cells were washed with (phosphate-buffered saline (PBS), mechanically harvested by scraper and centrifugated 1000 × g for 5 min. Cell pellets were kept at − 80 °C.
Membranes were prepared as described previously by Randakova et al.[33]. […]
Non-specific binding was determined in the presence of 10 μM unlabelled atropine. […] The filtration plates were counted in the Microbeta scintillation counter (PerkinElmer). […] The inhibition constant KI was calculated according to Eq. (2). […]

With `c1csc(C[N+]23CCC(CC2)CC3)c1` [JB-8A], the Ki at M4 muscarinic receptor is 4.57 µM. The same measure, in the same setting: under `C[N+]1(Cc2cccs2)CCOCC1` [JB-12-2] stands 17 µM.

Turning to `COC(=O)C1=CCCN(Cc2cccs2)C1` [JB-13-1], the Ki at M4 muscarinic receptor (M4, competition with [3H]NMS, mean ± SD, three experiments, read-out: Binding affinity, negative logarithm of Ki (converted)) was 77.6 µM. For the compound `C[N+]1(Cc2cccs2)CC=CCC1` (stereo not shown) [JR-6, 1-methyl-1-[(thiophen-2-yl)methyl]-1,2,3,6-tetra hydropyridin-1-ium], the Ki in assay [1] was around 10 µM. Besides, the IP production result was “weak IP production” on M1 receptor and “marginal response” on M3 receptor.

Take `C[N+]1(Cc2ccc(Cl)s2)CC=CCC1` (stereo not shown) [PN-152, 1-[(5-chlorothiophen-2-yl)methyl]-1-methyl-1,2,3,6-tetrahydropyridin-1-ium]: the “Affinity, times higher than JR-6” value in assay [2] is reported as “three to ten”.
